Source: paper PMC10145651, “Modulation of the 5-Lipoxygenase Pathway by Chalcogen-Containing Inhibitors of Leukotriene A4 Hydrolase” (International Journal of Molecular Sciences, 2023)
Read-outs that look alike come from different tables or passages of the source.

Columns and labels:
LTA4H = target: T1, LTA4H (Homo sapiens, UniProt P09960); test: 5-LOX product formation from intact PMNs: LTB4 (cellular activity of LTA4H); format: cell-based; conditions: for inhibition of LTA4H (LTB4 production) in PMNs with exogenous AA: 10 µM inhibitor, 0–20 µM AA
T1 sequence (P09960 1-611): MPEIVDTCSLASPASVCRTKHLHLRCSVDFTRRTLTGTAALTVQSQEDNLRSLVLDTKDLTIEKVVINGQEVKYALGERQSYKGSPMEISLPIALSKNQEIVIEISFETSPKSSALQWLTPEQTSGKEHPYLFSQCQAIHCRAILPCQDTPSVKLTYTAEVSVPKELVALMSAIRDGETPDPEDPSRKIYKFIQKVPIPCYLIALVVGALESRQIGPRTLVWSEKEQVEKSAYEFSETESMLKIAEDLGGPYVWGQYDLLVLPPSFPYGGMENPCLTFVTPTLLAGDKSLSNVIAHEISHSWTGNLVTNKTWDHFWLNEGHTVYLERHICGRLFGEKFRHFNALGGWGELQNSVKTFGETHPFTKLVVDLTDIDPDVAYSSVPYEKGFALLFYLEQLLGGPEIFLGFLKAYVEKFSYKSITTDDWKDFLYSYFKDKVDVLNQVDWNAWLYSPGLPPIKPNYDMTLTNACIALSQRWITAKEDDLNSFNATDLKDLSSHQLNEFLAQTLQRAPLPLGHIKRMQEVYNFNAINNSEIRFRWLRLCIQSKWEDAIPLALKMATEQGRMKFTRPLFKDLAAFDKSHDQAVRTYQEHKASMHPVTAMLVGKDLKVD
Description: (§1) Human primary leukocytes were isolated from peripheral blood of healthy adult volunteers provided by the Institute of Transfusion Medicine at the University Hospital Greifswald as described before. All methods were performed in accordance with the Declaration of Helsinki. In brief, erythrocytes were removed by dextran sedimentation and leukocytes were separated by the density gradient centrifugation on a lymphocyte separation medium (Histopaque®-1077, Merck, Darmstadt, Germany). The remaining erythrocytes were removed by hypotonic lysis using water, and resulting polymorphonuclear neutrophils (PMNs) were resuspended in PBS containing 0.1% (w/v) glucose (PG buffer) or PG buffer with 1 mM CaCl2 (PGC buffer) as indicated. Resulting peripheral blood mononuclear cells (PBMC), including monocytes, were seeded in the RPMI 1640 medium supplemented with 10% (v/v) FCS, 100 U/mL penicillin, 100 µg/mL streptomycin and 2 mM L-glutamine in cell culture flasks (Greiner Bio-one, Frickenhausen, Germany) for 1.5 h at 37 °C and 5% CO2. Adherent monocytes were washed twice with PBS and were finally resuspended in the RPMI 1640 medium as described before.
(§2) PMNs (5 × 10^6 cells/mL) were diluted in PGC buffer and pre-incubated with the vehicle (0.1%; v/v) or compounds for 10 min at 37 °C prior to the stimulation with 2.5 µM A23187. After 10 min at 37 °C, treatments were stopped on ice with an equal volume of ice-cold methanol. Next, 530 µL acidified PBS containing 200 ng PGB1 as an internal standard were added to the sample followed by the solid phase extraction with on a RP18 column. […] Formed 5-LOX metabolites were analyzed as described previously.

[1] = test system: peripheral blood-derived monocytes; test: MTT cytotoxicity assay with monocytes; format: cell-based, human; conditions: lower concentrations (less than 30 µM); MTT and LDH assays, Figure S3
Description: Human primary leukocytes were isolated from peripheral blood of healthy adult volunteers provided by the Institute of Transfusion Medicine at the University Hospital Greifswald as described before. All methods were performed in accordance with the Declaration of Helsinki. […] The remaining erythrocytes were removed by hypotonic lysis using water, and resulting polymorphonuclear neutrophils (PMNs) were resuspended in PBS containing 0.1% (w/v) glucose (PG buffer) or PG buffer with 1 mM CaCl2 (PGC buffer) as indicated.
Then, cells were incubated with 5 mg/mL MTT in PBS until the blue staining of the vehicle-containing control cells. Formazan formation was stopped by 100 µL of 10% (w/v in 20 mM HCl) SDS lysis buffer and followed by shaking overnight. Finally, absorbance was measured at 570 nm with a SpectraMax® i3x multi-mode detection platform (Molecular Devices, San Jose, CA, USA). The pan-protein kinase inhibitor staurosporine (1 µM) was used as a cytotoxic control inhibitor.

5-LOX = target: T2, 5-LOX (Homo sapiens, UniProt P09917); test: 5-LOX product formation from intact PMNs: 5S-HETE (cellular activity of 5-LOX); format: cell-based; parameters: stimulated intact polymorphonuclear neutrophils (PMNs); endogenous in cells; host or cells: human primary polymorphonuclear neutrophils (PMNs) from peripheral blood; conditions: for inhibitory effect on the 5-LOX activity (5S-HETE) in PMNs with exogenous AA: 0.5 µM inhibitor, 0–20 µM AA
T2 sequence (P09917 1-674): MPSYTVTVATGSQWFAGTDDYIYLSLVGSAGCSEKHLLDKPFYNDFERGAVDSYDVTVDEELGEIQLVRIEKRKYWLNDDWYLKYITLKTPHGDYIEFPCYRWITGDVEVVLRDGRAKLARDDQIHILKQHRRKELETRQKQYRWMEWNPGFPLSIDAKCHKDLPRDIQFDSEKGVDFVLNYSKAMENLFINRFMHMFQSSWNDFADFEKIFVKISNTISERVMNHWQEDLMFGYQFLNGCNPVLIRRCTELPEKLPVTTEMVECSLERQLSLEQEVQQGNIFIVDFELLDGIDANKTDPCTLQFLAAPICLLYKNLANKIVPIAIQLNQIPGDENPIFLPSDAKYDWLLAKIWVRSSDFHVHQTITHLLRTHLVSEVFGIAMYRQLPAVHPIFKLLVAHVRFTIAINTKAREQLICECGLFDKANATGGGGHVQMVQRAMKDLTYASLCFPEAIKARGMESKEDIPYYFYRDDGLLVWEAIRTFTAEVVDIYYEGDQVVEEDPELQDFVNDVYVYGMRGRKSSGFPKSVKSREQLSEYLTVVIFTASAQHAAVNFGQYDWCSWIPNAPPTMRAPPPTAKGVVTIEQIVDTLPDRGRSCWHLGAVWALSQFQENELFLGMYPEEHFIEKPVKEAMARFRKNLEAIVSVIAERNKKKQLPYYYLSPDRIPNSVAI
Description: as §1, §2

[2] = A23187-activated intact PMNs, LTB4 formation, read-out: IC50 on the activity of LTA4H (LTB4) in PMNs
[3] = A23187-activated intact PMNs, 5S-HETE formation, read-out: IC50 on the 5-LOX activity (5S-HETE) in PMNs

inhibition of LTA4H (LTB4 production) in PMNs with exogenous AA (LTA4H) | IC50 (LTA4H; [2]) [nM] | IC50 (5-LOX; [3]) [nM] | Structure (SMILES) | IC50 (LTA4H) [nM] | safety in human leukocytes (cytotoxicity assays) [1] | IC50 (5-LOX) [nM] | inhibitory effect on the 5-LOX activity (5S-HETE) in PMNs with exogenous AA (5-LOX)
higher production of LTB4 | 800 | 2300 | Nc1nc(-c2ccc(Cc3ccccc3)cc2)co1 [TTO, 4-(4-benzylphenyl) oxazol-2-amine] | – | safe | – | did not have any inhibitory effects
almost complete | 600 | 1700 | Nc1nc(-c2ccc(Cc3ccccc3)cc2)cs1 [ARM1, 4-(4-benzylphenyl) thiazol-2-amine, reference compound] | – | safe | – | –

Structure (SMILES) | inhibition of LTA4H (LTB4 production) in PMNs with exogenous AA (LTA4H) | IC50 (LTA4H; [2]) [nM] | IC50 (5-LOX; [3]) [nM] | IC50 (LTA4H) [nM] | safety in human leukocytes (cytotoxicity assays) [1] | IC50 (5-LOX) [nM] | inhibitory effect on the 5-LOX activity (5S-HETE) in PMNs with exogenous AA (5-LOX)
Nc1nc(-c2ccc(Cc3ccccc3)cc2)c[se]1 [TTSe, 4-(4-benzylphenyl) selenazol-2-amine] | almost complete | – | – | 800 | safe | 2300 | did not have any inhibitory effects
